The source of these data is patent US11524960B2, “Heterobicyclic inhibitors of MAT2A and methods of use for treating cancer” (AGIOS PHARMACEUTICALS, INC., priority 2018, dated 2022).

Assay [1] relates to HCT116 MTAP−/−. Description: Inhibition of cellular proliferation (Cell Titer Glo), HCT116 MTAP−/−. The format is cell-based, human. Particulars: 4 days, IC50 score, read-out: 4 Day Relative Growth Inhibition (MTAP −/−; Example 277). In outline: (§1)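 Proliferation was read as ATP luminescence (Cell Titer Glo) after a 4-day, 37 °C exposure of HCT116 cells differing only in MTAP deletion status. Dosing was 10 points, 3-fold steps, added 24 h post-plating; signal minus blank, relative to 0.2% DMSO control wells, was plotted against log molar concentration.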
(In general: In ATP-based viability assays light output follows the ATP content of the culture.)

Assay [2] relates to SAM in HCT116 human colon carcinoma cell line engineered to delete the MTAP gene (MTAP −/−). Kind of assay: Cellular assay of target engagement (SAM) by LC-MS/MS. Particulars: IC50 score, read-out: Cell 72 h SAM Inhibition (MTAP −/−; Example 276). The class given is cell-based. Put shortly: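 Intracellular SAM, the MAT2A product, was measured by quantitative LC-MS/MS against a d3-SAM standard in methanol/acetic acid extracts. Extracts came from HCT116 MTAP −/− cells exposed for 72 h at 37 °C to a ten-point, threefold dilution series of compound, added one day after seeding.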

For assay [3], the target named is T1, MAT2A homodimer (Homo sapiens, UniProt P31153).
T1 construct: inferred from Ni sepharose purification and imidazole elution; made in house; host or cells: Sf9 insect cells, recombinant baculovirus (Bac to Bac, pFASTBAC1)
Kind of assay: Biochemical assay: inhibition of MAT2A (phosphate release, PiColorLock Gold). Particulars: MAT2A IC50 score; read-out: Enzyme Inhibition (Example 275). In outline: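 Phosphate formed alongside SAM was read with PiColorLock Gold and quantified against a potassium phosphate standard curve. Reactions ran 60 min at 25 °C after adding a substrate mix of 500 μM ATP and 400 μM L-methionine (mix concentrations). Compound had first been preincubated 60 min with recombinant Sf9-derived MAT2A homodimer ([…]) in pH 8.0 Tris buffer containing MgCl2, KCl, EDTA and BSA.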

Assay [4] has as its system HCT116 MTAP+/+. Description: Inhibition of cellular proliferation (Cell Titer Glo), HCT116 MTAP+/+. The class given is cell-based, human. Particulars: 4 days, IC50 score, read-out: 4 Day Relative Growth Inhibition (MTAP +/+; Example 277). Put shortly:
as §1

Read-outs that look alike come from different tables or passages of the source.

T1 sequence (P31153 whole entry): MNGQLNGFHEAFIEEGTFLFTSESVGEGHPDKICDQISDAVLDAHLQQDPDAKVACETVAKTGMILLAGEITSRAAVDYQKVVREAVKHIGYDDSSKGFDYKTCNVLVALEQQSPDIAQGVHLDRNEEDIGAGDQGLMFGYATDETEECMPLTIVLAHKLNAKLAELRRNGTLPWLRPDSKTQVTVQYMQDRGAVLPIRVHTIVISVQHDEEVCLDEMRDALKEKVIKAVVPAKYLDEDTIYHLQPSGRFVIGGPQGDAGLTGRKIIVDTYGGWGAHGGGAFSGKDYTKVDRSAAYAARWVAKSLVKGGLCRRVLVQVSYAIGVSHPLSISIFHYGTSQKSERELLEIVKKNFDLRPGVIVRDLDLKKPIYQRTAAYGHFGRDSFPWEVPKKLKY

For `Cn1cnc2ccc(-n3cc4ccc(OCC(F)(F)F)nc4c(-c4ccc(C5CC5)nc4)c3=O)cc21` [Example 120-A], the IC50 in assay [1] (Homo sapiens, HCT-116, 96 h) is under 100 nM; in assay [2] (Homo sapiens, HCT-116, 72 h), under 100 nM; in assay [3] it was under 100 nM; in assay [4] (Homo sapiens, HCT-116, 96 h) it was 100 to 10000 nM.
On to `Cn1cc2cc(-n3cc4ncc(OCC(F)F)nc4c(-c4ccc(Cl)cc4)c3=O)ccc2n1` [Example 146-A], for which the IC50 was under 100 nM in assay [1] (Homo sapiens, HCT-116, 96 h); under 100 nM in assay [2] (Homo sapiens, HCT-116, 72 h); under 100 nM in assay [3]; 100 to 10000 nM in assay [4] (Homo sapiens, HCT-116, 96 h).
`O=c1c(-c2ccc(C3CC3)cc2)c2nc(NCC(F)(F)F)ncc2cn1-c1ccc2ncccc2c1` [Example 168, 8-(4-cyclopropylphenyl)-6-(quinolin-6-yl)-2-((2,2,2-trifluoroethyl)amino)pyrido[4,3-d]pyrimidin-7(6)-one]: the IC50 was under 100 nM in assay [1] (Homo sapiens, HCT-116, 96 h); under 100 nM in assay [2] (Homo sapiens, HCT-116, 72 h); under 100 nM in assay [3]; over 10000 nM in assay [4] (Homo sapiens, HCT-116, 96 h).
Consider `CCOc1ccc2cn(-c3ccc4nn(C)cc4c3)c(=O)c(-c3ccc(C(F)F)nc3)c2n1` [Example 216, 8-(6-(difluoromethyl)pyridin-3-yl)-2-ethoxy-6-(2-methyl-2H-indazol-5-yl)-1,6-naphthyridin-7(6H)-one], for which the IC50 in assay [1] (Homo sapiens, HCT-116, 96 h) was under 100 nM; in assay [2] (Homo sapiens, HCT-116, 72 h), under 100 nM; in assay [3], under 100 nM; in assay [4] (Homo sapiens, HCT-116, 96 h) it was 100 to 10000 nM.
For the compound `CCOc1ccc2cn(-c3ccc4nn(C)nc4c3)c(=O)c(-c3ccc(Cl)cc3)c2n1` [Example 106-A], the IC50 in assay [1] (Homo sapiens, HCT-116, 96 h) is 100 to 10000 nM; in assay [2] (Homo sapiens, HCT-116, 72 h), under 100 nM; in assay [3], under 100 nM; in assay [4] (Homo sapiens, HCT-116, 96 h) it was over 10000 nM.
Turning to `COc1ccc(-c2c(=O)n(-c3ccc4ncccc4c3)cc3cnc(NCC(F)(F)F)nc23)cc1` [Example 181, 8-(4-methoxyphenyl)-6-(quinolin-6-yl)-2-((2,2,2-trifluoroethyl)amino)pyrido[4,3-d]pyrimidin-7(6H)-one], the IC50 in assay [1] (Homo sapiens, HCT-116, 96 h) was 100 to 10000 nM; in assay [2] (Homo sapiens, HCT-116, 72 h) it was under 100 nM; in assay [3] it was under 100 nM; in assay [4] (Homo sapiens, HCT-116, 96 h), over 10000 nM.
As to `CCOc1ccc2cn(-c3ccc(=O)n(CCS(C)(=O)=O)c3)c(=O)c(-c3ccc(OC(F)F)cc3)c2n1` [Example 107-A], the IC50 in assay [1] is under 100 nM; in assay [2] (72 h) it was under 100 nM; in assay [3], under 100 nM; in assay [4], 100 to 10000 nM.
`Cn1cnc2ccc(-n3cc4cnc(NCC(F)(F)F)nc4c(-c4ccc(OC(F)F)cc4)c3=O)cc21` [Example 151, 8-(4-(difluoromethoxy)phenyl)-6-(1-methyl-1H-benzo[d]imidazol-6-yl)-2-((2,2,2-trifluoroethyl)amino)pyrido[4,3-d]pyrimidin-7(6H)-one]: the IC50 in assay [1] (Homo sapiens, HCT-116, 96 h) is under 100 nM; in assay [2] (Homo sapiens, HCT-116, 72 h), under 100 nM; in assay [3], under 100 nM; in assay [4] (Homo sapiens, HCT-116, 96 h), 100 to 10000 nM.
`CCOc1ccc2cn(-c3ccc4nn(C)cc4c3)c(=O)c(-c3ccc(C4CC4)nc3)c2n1` [Example 221, 8-(6-cyclopropylpyridin-3-yl)-2-ethoxy-6-(2-methyl-2H-indazol-5-yl)-1,6-naphthyridin-7(6H)-one]: the IC50 is 100 to 10000 nM in assay [1] (Homo sapiens, HCT-116, 96 h); under 100 nM in assay [2] (Homo sapiens, HCT-116, 72 h); under 100 nM in assay [3]; over 10000 nM in assay [4] (Homo sapiens, HCT-116, 96 h).
`CCOc1ccc2cn(-c3ccc(OC)cc3)c(=O)c(-c3ccc(C)nc3)c2n1` [Example 114-A]: the IC50 in assay [1] (Homo sapiens, HCT-116, 96 h) is under 100 nM; in assay [2] (Homo sapiens, HCT-116, 72 h), under 100 nM; in assay [3], under 100 nM; in assay [4] (Homo sapiens, HCT-116, 96 h), 100 to 10000 nM.
`O=c1c(-c2ccc(Cl)cc2)c2nc(NCC(F)(F)F)ncc2cn1-c1ccc2c(c1)CCO2` [Example 133, 8-(4-chlorophenyl)-6-(2,3-dihydrobenzofuran-5-yl)-2-(2,2,2-trifluoroethylamino)pyrido[4,3-d]pyrimidin-7(6H)-one]: the IC50 was under 100 nM in assay [1] (Homo sapiens, HCT-116, 96 h); under 100 nM in assay [2] (Homo sapiens, HCT-116, 72 h); under 100 nM in assay [3]; over 10000 nM in assay [4] (Homo sapiens, HCT-116, 96 h).
On to `COc1ccc(-c2c(=O)n(-c3ccc4c(c3)N(C)CCO4)cc3cnc(NCC(F)(F)F)nc23)cc1` [Example 145, 8-(4-methoxyphenyl)-6-(4-methyl-3,4-dihydro-2H-benzo[b][1,4]oxazin-6-yl)-2-((2,2,2-trifluoroethyl)amino)pyrido[4,3-d]pyrimidin-7(6H)-one], for which the IC50 in assay [1] (Homo sapiens, HCT-116, 96 h) was under 100 nM; in assay [2] (Homo sapiens, HCT-116, 72 h), under 100 nM; in assay [3], under 100 nM; in assay [4] (Homo sapiens, HCT-116, 96 h) it was over 10000 nM.
`CCOc1ccc2cn(-c3ccc4ncccc4c3)c(=O)c(-c3ccc(OC(F)F)cc3)c2n1` [Example 230, 8-(4-(difluoromethoxy)phenyl)-2-ethoxy-6-(quinolin-6-yl)-1,6-naphthyridin-7(6H)-one]: the IC50 was under 100 nM in assay [1] (Homo sapiens, HCT-116, 96 h); under 100 nM in assay [2] (Homo sapiens, HCT-116, 72 h); under 100 nM in assay [3]; 100 to 10000 nM in assay [4] (Homo sapiens, HCT-116, 96 h).
On to `COc1ccc(-n2cc3ccc(OCC(F)(F)F)nc3c(-c3ccc(OC(F)F)cc3)c2=O)cc1` [Example 258, 8-(4-(difluoromethoxy)phenyl)-6-(4-methoxyphenyl)-2-(2,2,2-trifluoroethoxy)-1,6-naphthyridin-7(6H)-one], for which the IC50 is 100 to 10000 nM in assay [1] (Homo sapiens, HCT-116, 96 h); under 100 nM in assay [2] (Homo sapiens, HCT-116, 72 h); under 100 nM in assay [3]; 100 to 10000 nM in assay [4] (Homo sapiens, HCT-116, 96 h).
As to `Cc1c2cc(-n3cc4cnc(NCC(F)(F)F)nc4c(-c4ccc(Cl)cc4)c3=O)ccc2nn1C` [Example 132, 8-(4-chlorophenyl)-6-(2,3-dimethyl-2H-indazol-5-yl)-2-(2,2,2-trifluoroethylamino)pyrido[4,3-d]pyrimidin-7(6)-one], the IC50 in assay [1] (Homo sapiens, HCT-116, 96 h) was under 100 nM; in assay [2] (Homo sapiens, HCT-116, 72 h), under 100 nM; in assay [3] it was under 100 nM; in assay [4] (Homo sapiens, HCT-116, 96 h) it was over 10000 nM.
Turning to `CCNc1ncc2cn(-c3ccc4nn(C)cc4c3)c(=O)c(-c3ccc(Cl)cc3)c2n1` [Example 169, 8-(4-chlorophenyl)-2-(ethylamino)-6-(2-methyl-2H-indazol-5-yl)pyrido[4,3-d]pyrimidin-7(6H)-one], the IC50 in assay [1] (Homo sapiens, HCT-116, 96 h) is under 100 nM; in assay [2] (Homo sapiens, HCT-116, 72 h), under 100 nM; in assay [3] it was under 100 nM; in assay [4] (Homo sapiens, HCT-116, 96 h) it was over 10000 nM.
On to `COc1ccc(-c2c(=O)n(-c3ccc4nccn4c3)cc3cnc(NCC(F)(F)F)nc23)cc1` [Example 143, 6-(imidazo[1,2-a]pyridin-6-yl)-8-(4-methoxyphenyl)-2-((2,2,2-trifluoroethyl)amino)pyrido[4,3-d]pyrimidin-7(6H)-one], for which the IC50 in assay [1] (Homo sapiens, HCT-116, 96 h) was 100 to 10000 nM; in assay [2] (Homo sapiens, HCT-116, 72 h), 100 to 1000 nM; in assay [3], under 100 nM; in assay [4] (Homo sapiens, HCT-116, 96 h), over 10000 nM.
For `Cn1cc2cc(-n3cc4ccc(OCC(F)F)nc4c(-c4ccc(OC(F)F)cc4)c3=O)ccc2n1` [Example 126-A], the IC50 in assay [1] (Homo sapiens, HCT-116, 96 h) is under 100 nM; in assay [2] (Homo sapiens, HCT-116, 72 h), under 100 nM; in assay [3] it was under 100 nM; in assay [4] (Homo sapiens, HCT-116, 96 h), 100 to 10000 nM.
`CCOc1ccc2cn(-c3ccc4ncn(C)c4c3)c(=O)c(-c3ccc(OC(F)F)nc3)c2n1` [Example 229, 8-(6-(difluoromethoxy)pyridin-3-yl)-2-ethoxy-6-(1-methyl-1H-benzo[d]imidazol-6-yl)-1,6-naphthyridin-7(6H)-one]: the IC50 in assay [1] (Homo sapiens, HCT-116, 96 h) is under 100 nM; in assay [2] (Homo sapiens, HCT-116, 72 h), under 100 nM; in assay [3] it was under 100 nM; in assay [4] (Homo sapiens, HCT-116, 96 h), 100 to 10000 nM.
With `O=c1c(-c2ccc(OC(F)F)cc2)c2nc(OCC(F)(F)F)ncc2cn1-c1ccc2ncccc2c1` [Example 264, 8-(4-(difluoromethoxy)phenyl)-6-(quinolin-6-yl)-2-(2,2,2-trifluoroethoxy)pyrido[4,3-d]pyrimidin-7(6H)-one], the IC50 in assay [1] (Homo sapiens, HCT-116, 96 h) is 100 to 10000 nM; in assay [2] (Homo sapiens, HCT-116, 72 h), under 100 nM; in assay [3] it was under 100 nM; in assay [4] (Homo sapiens, HCT-116, 96 h), 100 to 10000 nM.
For `CCNc1ncc2cn(-c3ccc4nn(C)cc4c3)c(=O)c(-c3ccc(OC(F)F)cc3)c2n1` [Example 171, 8-(4-(difluoromethoxy)phenyl)-2-(ethylamino)-6-(2-methyl-2H-indazol-5-yl)pyrido[4,3-d]pyrimidin-7(6H)-one], the IC50 in assay [1] (Homo sapiens, HCT-116, 96 h) was under 100 nM; in assay [2] (Homo sapiens, HCT-116, 72 h), under 100 nM; in assay [3], under 100 nM; in assay [4] (Homo sapiens, HCT-116, 96 h), over 10000 nM.
As to `CCOc1ccc2cn(-c3ccc(OC)cc3)c(=O)c(-c3ccc(OC(F)F)cc3)c2n1` [Example 250, 8-(4-(difluoromethoxy)phenyl)-2-ethoxy-6-(4-methoxyphenyl)-1,6-naphthyridin-7(6H)-one], the IC50 in assay [1] (Homo sapiens, HCT-116, 96 h) was under 100 nM; in assay [2] (Homo sapiens, HCT-116, 72 h), under 100 nM; in assay [3] it was under 100 nM; in assay [4] (Homo sapiens, HCT-116, 96 h), 100 to 10000 nM.
